From patent publication US8003648B2, “Heterocyclic GPR40 modulators” (Amgen Inc., priority 2006, dated 2011)
pEC50: −log10 of the molar value.

Biological target: T1, human GPR40 (Homo sapiens, UniProt O14842)
T1 construct: host or cells: CHO cells
Assay: Cell-based aequorin assay using human GPR40
Conditions: activation of human GPR40; CHO cells stably transfected with GPR40 and Aequorin; 0.01% HSA; aequorin luminescence
Method: Cell-based aequorin assays were employed to characterize the modulatory activity of compounds on the GPR40 signaling pathway. In an exemplary assay, CHO cells were stably transfected with both GPR40 and Aequorin (Euroscreen). Cells were detached from the tissue culture dish with 2 mL of trypsin (0.25% (w/v)). Trypsinization was halted with 28 mL of Hanks Buffered Salt Solution containing 20 mM Hepes (H/HBSS) and 0.01% fatty acid-free human serum albumin (HSA). Coelantrazine is added to 1 ug/mL, and the cells were incubated for 2 hours at room temperature. Compounds were dissolved in DMSO for preparation of 10 mM stock solutions. Compounds were diluted in H/HBSS containing 0.01% HSA. Serial dilutions of the test compounds were prepared to determine dose response.
Aequorin luminescence measurements were made using an EG&G Berthold 96-well luminometer, and the response was measured over a 20 second interval after cells and compounds were mixed. The maximum relative light units was plotted to determine dose response. The EC50 (effective concentration to reach 50% maximal response) was determined from the dose response plot.
Table 1 presents representative data (EC50 values) obtained for exemplary compounds of the invention for the activation of human GPR40. […]

T1 sequence (O14842 whole entry): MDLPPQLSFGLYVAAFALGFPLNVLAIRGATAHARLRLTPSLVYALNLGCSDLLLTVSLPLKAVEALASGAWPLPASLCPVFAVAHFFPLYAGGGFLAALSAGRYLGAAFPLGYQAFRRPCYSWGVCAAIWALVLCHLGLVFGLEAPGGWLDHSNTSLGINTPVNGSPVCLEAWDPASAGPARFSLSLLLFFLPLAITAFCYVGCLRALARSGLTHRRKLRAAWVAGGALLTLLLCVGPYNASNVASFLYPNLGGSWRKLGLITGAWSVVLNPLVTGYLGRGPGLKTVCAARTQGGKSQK

- pEC50: 6.00 to 7.00
Compound: CCOCCOc1cc(COc2ccc([C@H](CC(=O)O)c3ccon3)cc2)c(Br)cc1C(C)(C)C [Example 46, (S)-3-(4-(2-Bromo-4-tert-butyl-5-(2-ethoxyethoxy)benzyloxy)phenyl)-3-(isoxazol-3-yl)propanoic acid]
